We go through 10 molecules from paper PMC9863716, “The Sequence Characteristics and Binding Properties of the Odorant-Binding Protein 2 of Euplatypus parallelus to Semiochemicals” (International Journal of Molecular Sciences, 2023).

For test [1], the system named is rubber bark beetles. More on the design: method as in ref 16, 17 = [16]; 16. Shore T. McLean J. Attraction of Platypus wilsoni Swaine (Coleoptera: Platipodidae) to traps baited with sulcatol, ethanol and alpha-pinene Can. For. Serv. Res. Notes 1983 3 24 25 || [17]; 17. Chen Q. Liang X. Wu C. Chen Q. Zhang Z. Trapping effects of 12 aggregation pheromones on rubber bark beetles Chin. J. Trop. Crops 2019 40 2432 2439. Particulars: trapping experiments; cited from earlier work.

The target of test [2] is EparOBP2. Kind of test: Fluorescence competitive binding assay (displacement of 1-NPN). Details: species or system Euplatypus parallelus. Particulars: 2 μM protein, 50 mM Tris-HCl pH 7.4; for pKi: Ki = IC50/(1 + [1-NPN]/K1-NPN); for pIC50: ligand concentration displacing 50% of 1-NPN. How it is done: (§1) Nine semiochemicals related to the life activities of E. parallelus were used as candidate ligands. The binding capacities of EpraOBP2 were evaluated using an F-7000 fluorescence spectrometer (Hitachi, Tokyo, Japan). The fluorescent reporter N-phenyl-1-naphthylamine (1-NPN) was dissolved in chromatographic methanol at a concentration of 1 mM. The purified EparOBP2 was dissolved in 50 mM Tris-HCl (pH 7.4) at a final concentration of 2 μM. The fluorescence spectra were scanned between 360 and 650 nm. […] Prism 8 (GraphPad Software, San Diego, CA, USA) was used to calculate the dissociation constant of 1-NPN (K1-NPN).
To calculate the binding ability of EparOBP2 with semiochemicals, different odor compounds were used to replace the 1-NPN from the EparOBP2/1-NPN complex. The odor ligands were dissolved in chromatographic methanol at a concentration of 1 mM and added as aliquots to the protein solution. The spectral results were obtained, and the dissociation constants of the competitors were calculated with the formula Ki = IC50/(1 + [1-NPN]/K1-NPN), where 1-NPN represents the free concentration of 1-NPN, while IC50 represents the ligand concentration displacing 50% of the fluorescent reporter.

In test [3] the target is EparOBP2. Kind of test: Titration of EparOBP2 with fluorescent probe 1-NPN (saturation and Scatchard plot). It is filed as binding, Euplatypus parallelus. The conditions noted are these: 2 μM protein titrated with 2 to 20 μM 1-NPN, pH 7.4; read-out: K1-NPN (dissociation constant of 1-NPN). The method, then:
as §1

In test [4] the test system is E. parallelus. More on the design: method as in ref 7, 15 = [7]; 7. Zhou X. Guo J. Yin T. Gan W. Bai C. Xu F. Yang S. Research progress on rubber bark beetles and trapping control technology in China Chin. J. Trop. Crops 2021 42 3049 3054 || [15]; 15. Xu F. Research of Volatile Compounds of Rubber Tree and Its Behavioral Activities on Two Species of Bark Beetles Hainan University Haikou, China 2019 20 24. The conditions noted are these: cited from earlier work.

SMILES strings stand for the structures. pIC50, pKd, pKi: −log10 of the molar value.

On to `C=CC(C)(C)O` [2-Methyl-3-buten-2-ol], for which the “attraction effects on rubber bark beetles” value in test [1] is recorded as “attraction effects”. Further, in test [2], the pKi (commonly the Ki on a negative log10 scale, so that one unit is a factor of ten) was 4.50 and the negative-log IC50 (pIC50) (as a rule, the negative decadic logarithm of the IC50, by convention in mol/L) was 4.42.

Regarding `c1ccc(Nc2cccc3ccccc23)cc1` [1-NPN, N-phenyl-1-naphthylamine], in test [3], the pKd was 5.30.

Consider `C=C(C)[C@@H]1CC=C(C)CC1` [(S)-(-)-Limonene], for which, in test [1], the “attraction effects on rubber bark beetles” value is “attraction effects”. In test [2], the pKi is 4.47 and the pIC50 is 4.39.

Take `C=CC(=C)CCC=C(C)C` [Myrcene]: the “attraction effects on rubber bark beetles” value in test [1] is on record as “attraction effects”. In test [2], the pKi is 5.13 and the negative-log IC50 (pIC50) is 5.05.

As to `CC1=CCC2CC1C2(C)C` (stereo not drawn) [α-Pinene], the “attraction effects on rubber bark beetles” value in test [1] was “attraction effects”. For the same molecule, in test [2], the negative-log Ki (pKi) was 4.80 and the pIC50 was 4.72.

With `C=C1C2CCC(C2)C1(C)C` (stereo not shown) [Camphene], the “attraction effects on rubber bark beetles” value in test [1] is “attraction effects”. Besides, in test [2], the pKi was 4.56 and the pIC50 was 4.48.

For the molecule `CC1=C[C@H](O)[C@H]2C[C@@H]1C2(C)C` [S-(-)-cis-Verbenol], the “attraction effects on rubber bark beetles” value in test [1] is “attraction effects”. In test [2], the pKi was 4.71 and the negative-log IC50 (pIC50) was 4.63.

Regarding `CC(C)(O)c1ccccc1` [2-Phenyl-2-propanol], in test [2], the pKi was 4.63 and the pIC50 is 4.55. For the same molecule, the “attraction effect on E. parallelus” value in test [4] is given as “attraction effect”.

For the molecule `CCCCCCCCCCCCCC` [Tetradecane], in test [2], the pKi is 4.59 and the negative-log IC50 (pIC50) was 4.51. Also, the “attraction effect on E. parallelus” value in test [4] is recorded as “attraction effect”.

Take `C=C1[C@H]2CC[C@@H]3[C@H]2C(C)(C)CCC[C@]13C` [(+)-Longifolene]: in test [2], the pKi is 4.38 and the pIC50 is 4.30. Further, in test [4], the “attraction effect on E. parallelus” value is “attraction effect”.
